According to US20060241145A1, “Piperidine derivative crystal, process for producing the same, and use” (priority 2005, published 2006):
Structures can show the parent of a compound that is named as a salt. One block for each compound: values may come before it.

Legend:
substance P receptor = target: T1, substance P receptor (Homo sapiens, UniProt P25103); test: Radioligand receptor binding inhibitory activity (binding inhibitory activity using receptor from human lymphoblast cells (IM-9)); conditions: 125I-BHSP (substance P labeled with [125I]), receptor from IM-9 cells, 25° C. 30 min
T1 construct: The receptors were prepared from human lymphoblast cells (IM-9); endogenous in cells; host or cells: IM-9 human lymphoblast cells (membrane preparation)
T1 sequence (P25103 whole entry): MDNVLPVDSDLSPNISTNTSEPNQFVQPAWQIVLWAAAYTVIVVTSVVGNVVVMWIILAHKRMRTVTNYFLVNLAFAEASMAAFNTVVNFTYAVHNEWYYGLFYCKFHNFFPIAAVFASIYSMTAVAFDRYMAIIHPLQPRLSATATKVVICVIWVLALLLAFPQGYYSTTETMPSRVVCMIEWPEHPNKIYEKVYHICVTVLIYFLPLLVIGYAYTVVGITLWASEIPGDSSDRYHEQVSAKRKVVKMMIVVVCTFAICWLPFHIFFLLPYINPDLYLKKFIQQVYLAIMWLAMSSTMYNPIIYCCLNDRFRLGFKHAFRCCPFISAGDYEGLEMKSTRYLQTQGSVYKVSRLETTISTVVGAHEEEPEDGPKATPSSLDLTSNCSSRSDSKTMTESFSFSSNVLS
Method: Radioligand receptor binding inhibitory activity (Binding inhibitory activity using receptor from human lymphoblast cells (IM-9))
The method of M. A. Cascieri et al., “Molecular Pharmacology 42, p. 458 (1992)” was modified and used. The receptors were prepared from human lymphoblast cells (IM-9). IM-9 cells (2×10^5 cells/mL) were incubated for 3 days (one liter), which were then subjected to centrifuge for 5 min. at 500×G to obtain cell pellets. The obtained pellets were washed once with phosphate buffer (Flow Laboratories, CAT. No. 28-103-05), which were then homogenized using Polytron homogenizer (“Kinematika”, Germany) in 30 mL of 50 mM Tris-HCl buffer (pH 7.4) containing 120 mM sodium chloride, 5 mM potassium chloride, 2 μg/mL chymostatin, 40 μg/mL bacitracin, 5 μg/mL phosphoramidon, 0.5 mM phenylmethylsulfonyl fluoride, 1 mM ethylenediamine tetra-acetate, which was subjected to centrifuge at 40,000×G for 20 min. The residue was washed twice with 30 mL of the buffer, which was then preserved frozen (−80° C.) as a specimen of the receptors.
The specimen was suspended in a reaction buffer (50 mM Tris-HCl buffer (pH 7.4), 0.02% bovine serum albumin, 1 mM phenylmethylsulfonyl fluoride, 2 μg/mL chymostatin, 40 μg/mL bacitracin and 3 mM manganese chloride) to have protein in the concentration of 0.5 mg/mL of protein and 100 μL portion of the suspension was used in the reaction. After addition of the sample and ^125I-BHSP (0.46 KBq), the reaction was allowed to proceed in 0.2 mL of reaction buffer at 25° C. for 30 min. The amount of nonspecific binding was determined by adding substance P at a final concentration of 2×10^−6 M.
After the reaction, using a cell harvester (290 PHD, Cambridge Technology, Inc, U.S.A.), the reaction solution was filterd through a glass filter (GF/B, Whatman, U.S.A.), which was immersed in 0.1% polyethyleneimine for 24 hrs. and dried. After washing three times with 250 μL of 50 mM Tris-HCl buffer (pH 7.4) containing 0.02% bovine serum albumin, the radioactivity remaining on the filter was determined with a gamma counter.
The antagonistic activity of each compound obtained in Examples was determined in terms of the concentration necessary to cause 50% inhibition (IC50 value) under the above-described conditions, and the results were shown in Table 9.
The radio ligand means substance P labeled with [^125I].

[1] = tested on: urethane anesthetized male guinea pigs; test: Bladder capacity increasing action in urethane anesthetized guinea pigs; assay type: in vivo, guinea pig; conditions: for changes in bladder capacity (vs. before administration, %) / changes in voiding pressure (vs. before administration, %): mean ± standard error; for effect on bladder capacity (in words) / effect on voiding pressure (in words): intravenous, summary of Table 10
Source text: Bladder Capacity Increasing Activity of Tachykinin Receptor Antagonist, Oxybutynin and Tolterodine (Bladder Capacity Increasing Action in Urethane Anesthetized Guinea Pigs)
A urinary frequency/urinary incontinence suppressing effect of a substance having antagonistic action for tachykinin receptors was shown in terms of the ability to increase bladder capacity in urethane anesthetized male guinea pigs and compared with that of oxybutynin and tolterodine, which are therapeutic drugs for overactive bladder. Using male guinea pig under anesthesia, after emptying the bladder by suction, saline was infused into the bladder at a constant rate (0.3 mL/min.) until voiding. This procedure was repeated to confirm stable bladder capacity (amount of saline injected before induction of voiding). After confirming a stable response, a compound dissolved in DMSO was intravenously administered and the action was measured. Changes in the bladder capacity and voiding pressure after drug administration were measured.

SMILES: COc1ccc(-n2nnnc2C(F)(F)F)cc1CN[C@H]1CCN(C(=O)C(O)NC(C)=O)C[C@H]1c1ccccc1 (single isomer, unassigned) [Example 12]
- IC50 (substance P receptor): 0.016 nM

SMILES: COc1ccc(-n2nnnc2C(F)(F)F)cc1CN[C@H]1CCN(C(=O)CS(C)(=O)=O)C[C@H]1c1ccccc1 [Example 8, (3R,4S)-N-{2-methoxy-5-[5-(trifluoromethyl)-1H-tetrazol-1-yl]benzyl}-1-[(methylsulfonyl)acetyl]-3-phenylpiperidine-4-amine monohydrochloride]
- IC50 (substance P receptor): 0.022 nM

SMILES: COc1ccc(-n2nnnc2C(F)(F)F)cc1CN[C@H]1CCN(C(=O)CNC(C)=O)C[C@H]1c1ccccc1 [Example 20, N-{2-[(3R,4S)-4-({2-methoxy-5-[5-(trifluoromethyl)-1H-tetrazol-1-yl]benzyl}amino)-3-phenylpiperidin-1-yl]-2-oxoethyl}acetamide]
- changes in bladder capacity (vs. before administration, %) ([1]; dose 0.01 mg/kg intravenously): 5.8 ± 11.1%
- changes in voiding pressure (vs. before administration, %) ([1]; dose 0.01 mg/kg intravenously): 10.1 ± 8.4%
- changes in bladder capacity (vs. before administration, %) ([1]; dose 0.03 mg/kg intravenously): 3.0 ± 8.2%
- changes in voiding pressure (vs. before administration, %) ([1]; dose 0.03 mg/kg intravenously): 18.5 ± 18.5%
- changes in bladder capacity (vs. before administration, %) ([1]; dose 0.1 mg/kg intravenously): 42.9 ± 6.0 %
- changes in voiding pressure (vs. before administration, %) ([1]; dose 0.1 mg/kg intravenously): 3.0 ± 8.0%
- changes in bladder capacity (vs. before administration, %) ([1]; dose 0.3 mg/kg intravenously): 71.2 ± 25.2 %
- changes in voiding pressure (vs. before administration, %) ([1]; dose 0.3 mg/kg intravenously): 4.9 ± 11.0%
- effect on bladder capacity (in words) [1]: increased the bladder capacity in a dose-dependent manner
- effect on voiding pressure (in words) [1]: without affecting the voiding pressure
- IC50 (substance P receptor): 0.017 nM

SMILES: CCN(CC)CC#CCOC(=O)C(O)(c1ccccc1)C1CCCCC1 (centres unmarked) [oxybutynin]
- changes in bladder capacity (vs. before administration, %) ([1]; dose 0.1 mg/kg intravenously): 1.8 ± 7.0%
- changes in voiding pressure (vs. before administration, %) ([1]; dose 0.1 mg/kg intravenously): 4.3 ± 7.5%
- changes in bladder capacity (vs. before administration, %) ([1]; dose 0.3 mg/kg intravenously): 19.3 ± 5.1 %
- changes in voiding pressure (vs. before administration, %) ([1]; dose 0.3 mg/kg intravenously): −11.6 ± 5.4%
- changes in bladder capacity (vs. before administration, %) ([1]; dose 1 mg/kg intravenously): 43.6 ± 7.7 %
- changes in voiding pressure (vs. before administration, %) ([1]; dose 1 mg/kg intravenously): −12.1 ± 8.8%
- changes in bladder capacity (vs. before administration, %) ([1]; dose 3 mg/kg intravenously): 36.8 ± 6.6 %
- changes in voiding pressure (vs. before administration, %) ([1]; dose 3 mg/kg intravenously): −6.0 ± 5.6%
- effect on bladder capacity (in words) [1]: significantly increased the bladder capacity
- effect on voiding pressure (in words) [1]: showed lower voiding pressure

SMILES: Cc1ccc(O)c([C@H](CCN(C(C)C)C(C)C)c2ccccc2)c1 [tolterodine]
- changes in bladder capacity (vs. before administration, %) ([1]; dose 1 mg/kg intravenously): −3.4 ± 4.4%
- changes in voiding pressure (vs. before administration, %) ([1]; dose 1 mg/kg intravenously): 0.1 ± 5.7%
- changes in bladder capacity (vs. before administration, %) ([1]; dose 3 mg/kg intravenously): 14.8 ± 7.6%
- changes in voiding pressure (vs. before administration, %) ([1]; dose 3 mg/kg intravenously): −6.7 ± 6.5 %
- changes in bladder capacity (vs. before administration, %) ([1]; dose 10 mg/kg intravenously): 31.7 ± 9.1 %
- changes in voiding pressure (vs. before administration, %) ([1]; dose 10 mg/kg intravenously): −15.5 ± 4.6 %
- effect on bladder capacity (in words) [1]: significantly increased the bladder capacity
- effect on voiding pressure (in words) [1]: voiding pressure lowering action of tolterodine was significant

The remaining compounds from weak to strong by IC50 (substance P receptor), led by results:

- IC50 (substance P receptor): 0.062 nM
SMILES: COc1ccc(-n2nnnc2C(F)(F)F)cc1CN[C@H]1CCN(C(=O)C(O)NC(C)=O)C[C@H]1c1ccccc1 (single isomer, unassigned) [Example 13]

- IC50 (substance P receptor): 0.026 nM
SMILES: COc1ccc(-n2nnnc2C(F)(F)F)cc1CN[C@H]1CCN(C(C)=O)C[C@H]1c1ccccc1 [Example 6, (3R,4S)-1-acetyl-N-{2-methoxy-5-[5-(trifluoromethyl)-1H-tetrazol-1-yl]benzyl}-3-phenylpiperidine-4-amine monohydrochloride]

- IC50 (substance P receptor): 0.021 nM
SMILES: COc1ccc(-n2nnnc2C(F)(F)F)cc1CN[C@H]1CCN(C(=O)C2CCN(S(C)(=O)=O)CC2)C[C@H]1c1ccccc1 [Example 11, (3R,4S)-N-{2-methoxy-5-[5-(trifluoromethyl)-1H-tetrazol-1-yl]benzyl}-1-{[1-(methylsulfonyl)piperidin-4-yl]carbonyl}-3-phenylpiperidine-4-amine monohydrochloride]

- IC50 (substance P receptor): 0.017 nM
SMILES: COc1ccc(-n2nnnc2C(F)(F)F)cc1CN[C@H]1CCN(C(=O)CNC=O)C[C@H]1c1ccccc1 [Example 5, {2-[(3R,4S)-4-({2-methoxy-5-[5-(trifluoromethyl)-1H-tetrazol-1-yl]benzyl}amino)-3-phenylpiperidin-1-yl]-2-oxoethyl}formamide]

- IC50 (substance P receptor): 0.016 nM
SMILES: COc1ccc(-n2nnnc2C(F)(F)F)cc1CN[C@H]1CCN(C(=O)C2CCNCC2)C[C@H]1c1ccccc1 [Example 10, (3R,4S)-N-(2-methoxy-5-[5-(trifluoromethyl)-1H-tetrazol-1-yl]benzyl)-3-phenyl-1-(piperidin-4-ylcarbonyl)piperidine-4-amine dihydrochloride]

- IC50 (substance P receptor): 0.015 nM
SMILES: COc1ccc(-n2nnnc2C(F)(F)F)cc1CN[C@H]1CCN(C(=O)CN2C(=O)CCC2=O)C[C@H]1c1ccccc1 [Example 7, 1-{2-[(3R,4S)-4-({2-methoxy-5-[5-(trifluoromethyl)-1H-tetrazol-1-yl]benzyl}amino)-3-phenylpiperidin-1-yl]-2-oxoethyl}pyrrolidine-2,5-dione monohydrochloride]

- IC50 (substance P receptor): 0.012 nM
SMILES: CCC(=O)NCC(=O)N1CC[C@H](NCc2cc(-n3nnnc3C(F)(F)F)ccc2OC)[C@H](c2ccccc2)C1 [Example 9, N-{2-[(3R,4S)-4-({2-methoxy-5-[5-(trifluoromethyl)-1H-tetrazol-1-yl]benzyl}amino)-3-phenylpiperidin-1-yl]-2-oxoethyl}propanamide monohydrochloride]
